Among the data in US10774052B2, “Heteroaryl compounds and uses thereof” (Celgene CAR LLC, priority 2013, dated 2020) are EC50 values, retold here.

The experiment relates to pFGFR4 in MDA-MB-453 cells. Briefly: FGFR4 signaling, pFGFR4 (MDA); Western blot (Method A), MSD (Method B), ELISA (Method C). It counts as cell-based. The conditions noted are these: Homo sapiens. As for the experimental part: The MDA-MB-453 protein concentrations were determined by a BCA Assay (Pierce, Rockford, Ill.). A sample of 50-100 μg of each lysate was separated by a 4-12% gradient (SDS-PAGE (Invitrogen)), transferred to a nitrocellulose membrane (Biorad, Hercules, Calif.), and probed with specific antibodies. Phospho-protein signals were quantitated using Odyssey Infrared Imaging (Li-Cor Biosciences).
To assess phospho-FGFR signaling, the blots were probed with anti-Phospho-FGFR (Y653/Y654) and total anti-FGFR antibodies. The phospho-FGFR signal was normalized to total FGFR expression for each sample.
(In general: A western blot detects proteins with antibodies after separation by electrophoresis.)

[1] abbreviates: MDA-MB-453, MDA-MB-453 cells, Method B (MSD) for signaling EC50 determination.
Where [2] appears, read: MDA-MB-453 cells, Method B (MSD) for signaling EC50 determination.
Where [3] appears, read: MDA-MB-453 cells, Method C (ELISA) for signaling EC50 determination.
[4] abbreviates: MDA-MB-453 cells, Method A (Western blot) for signaling EC50 determination.

Under setting [1], `CCC(=O)Nc1ccccc1Nc1ncc2c(n1)N(Cc1ccccc1)C(=O)N(c1c(Cl)c(OC)cc(OC)c1Cl)C2` [Compound I-236] had an EC50 of 101 to 500 nM.

In turn, `COc1cc(OC)cc(N2Cc3cnc(Nc4ccccc4)nc3N(C)C2=O)c1` [Compound I-237] came in with an EC50 under setting [1] of 101 to 500 nM.

`C=CC(=O)Nc1ccccc1Nc1ncc2c(n1)N(Cc1csc(C)n1)C(=O)N(c1c(Cl)c(OC)cc(OC)c1Cl)C2` [Compound I-134]: the half-maximal effective concentration (EC50) under setting [2] is below 100 nM.

In turn, `C=CC(=O)N[C@@H]1CCCC[C@@H]1Nc1ncc2c(n1)N(Cc1nccs1)C(=O)N(c1c(Cl)c(OC)cc(OC)c1Cl)C2` [Compound I-93] displayed an EC50 under setting [1] above 1000 nM.

Regarding `C=CC(=O)N[C@H]1CCCC[C@H]1Nc1ncc2c(n1)N(Cc1cn[nH]c1)C(=O)N(c1c(Cl)c(OC)cc(OC)c1Cl)C2` [Compound I-152], the 50% effective concentration (EC50) under setting [2] was below 100 nM.

The compound `C=CC(=O)Nc1ccccc1Nc1ncc2c(n1)N(Cc1ccccc1)C(=O)N(c1c(Cl)c(OC)cc(OC)c1Cl)C2` [Compound I-3] came in with an EC50 under setting [3] below 100 nM.

`C=CC(=O)NCc1ccccc1Nc1ncc2c(n1)N(C)C(=O)N(c1c(Cl)c(OC)cc(OC)c1Cl)C2` [Compound I-181] showed an EC50 under setting [2] below 100 nM.

Regarding `C=CC(=O)Nc1ccccc1Nc1ncc2c(n1)N(CC1CC1)C(=O)N(c1c(Cl)c(OC)cc(OC)c1Cl)C2` [Compound I-130], the concentration for a half-maximal effect (EC50) under setting [2] was below 100 nM.

For `C=CC(=O)Nc1ccccc1Nc1ncc2c(n1)N(CC(F)F)C(=O)N(c1c(Cl)c(OC)cc(OC)c1Cl)C2` [Compound I-103], the EC50 under setting [2] is below 100 nM.

Regarding `C=CC(=O)Nc1ccc(-c2cnn(C)c2)cc1Nc1ncc2c(n1)N(C)C(=O)N(c1c(Cl)c(OC)cc(OC)c1Cl)C2` [Compound I-74], the EC50 under setting [2] was below 100 nM.

`C=C(C)C(=O)Nc1ccccc1Nc1ncc2c(n1)N(C)C(=O)N(c1c(Cl)c(OC)cc(OC)c1Cl)C2` [Compound I-142] showed an EC50 under setting [2] of 101 to 500 nM.

The compound `C=CCCN1C(=O)N(c2cc(OC)cc(OC)c2)Cc2cnc(Nc3ccccc3NC(=O)C=C)nc21` [Compound I-57] registered an EC50 under setting [2] below 100 nM.

Take `C=CC(=O)NC1CCCCC1Nc1ncc2c(n1)N(CC1CC1)C(=O)N(c1cc(OC)cc(OC)c1Cl)C2` (stereo not drawn) [Compound I-101]: under setting [1], the EC50 was in the range of 101 to 500 nM.

`C=CC(=O)N[C@H]1CCCC[C@H]1Nc1ncc2c(n1)N(Cc1ccccc1)C(=O)N(c1c(Cl)c(OC)cc(OC)c1Cl)C2` [Compound I-82] yielded an EC50 under setting [2] below 100 nM.

`C=CC(=O)Nc1ccccc1Nc1ncc2c(n1)N(CC(=O)OC(C)(C)C)C(=O)N(c1cc(OC)cc(OC)c1)C2` [Compound I-96] yielded an EC50 under setting [1] above 1000 nM.

In turn, `C=CC(=O)Nc1ccccc1Nc1ncc2c(n1)N(C)C(=O)N(c1c(Cl)c(OC)cc(OC)c1Cl)C2` [Compound I-2] registered an EC50 under setting [4] below 100 nM.

`C=CC(=O)NC1CCCCC1Nc1ncc2c(n1)N(CC1CC1)C(=O)N(c1c(Cl)c(OC)cc(OC)c1Cl)C2` (racemic) [Compound I-129] had an EC50 under setting [2] of 101 to 500 nM.

`C=CC(=O)Nc1ccc(N2CCN(CC)CC2)cc1Nc1ncc2c(n1)N(C)C(=O)N(c1cc(OC)cc(OC)c1)C2` [Compound I-30] yielded an EC50 under setting [2] of 101 to 500 nM.

The compound `C=CC(=O)Nc1ccccc1CNc1ncc2c(n1)N(Cc1cccc(NC(=O)CC)c1)C(=O)N(c1c(Cl)c(OC)cc(OC)c1Cl)C2` [Compound I-180] gave an EC50 under setting [3] below 100 nM.

Consider `C=CC(=O)Nc1ccccc1Nc1ncc2c(n1)N(Cc1ccc(F)c(N)c1)C(=O)N(c1c(Cl)c(OC)cc(OC)c1Cl)C2` [Compound I-144], for which the EC50 under setting [2] was below 100 nM.

Turning to `C=CC(=O)Nc1cc(N2CCCCC2)ccc1Nc1ncc2c(n1)N(C)C(=O)N(c1cc(OC)cc(OC)c1)C2` [Compound I-31], the EC50 under setting [2] was in the range of 101 to 500 nM.

In the case of `C=CC(=O)NC1CCCCC1Nc1ncc2c(n1)NC(=O)N(c1c(Cl)c(OC)cc(OC)c1Cl)C2` (racemic) [Compound I-73], under setting [2], the EC50 lay in the range of 101 to 500 nM.

The compound `C=CC(=O)Nc1cc(CN2CCN(CC)CC2)ccc1Nc1ncc2c(n1)N(C)C(=O)N(c1cc(OC)cc(OC)c1)C2` [Compound I-122] had an EC50 under setting [1] of 101 to 500 nM.

Under setting [2], `C=CC(=O)Nc1ccccc1Nc1ncc2c(n1)N(Cc1ccnc(N)c1)C(=O)N(c1c(Cl)c(OC)cc(OC)c1Cl)C2` [Compound I-135] showed an EC50 below 100 nM.

`C=CC(=O)Nc1ccccc1Nc1ncc2c(n1)N(Cc1cccc(OC)c1)C(=O)N(c1c(Cl)c(OC)cc(OC)c1Cl)C2` [Compound I-28] displayed an EC50 under setting [2] below 100 nM.

As for `C=CC(=O)N[C@H]1CCCC[C@H]1Nc1ncc2c(n1)N(Cc1ccn(C)n1)C(=O)N(c1c(Cl)c(OC)cc(OC)c1Cl)C2` [Compound I-147], under setting [2], the half-maximal effective concentration (EC50) was below 100 nM.

For the compound `C=CC(=O)Nc1ccc(Nc2ncc3c(n2)N(Cc2cccc(NC(=O)CC)c2)C(=O)N(c2c(Cl)c(OC)cc(OC)c2Cl)C3)cc1` [Compound I-233], the EC50 under setting [4] was below 100 nM.

In turn, `C=CC(=O)N[C@H]1CCCC[C@H]1Nc1ncc2c(n1)N(Cc1nccs1)C(=O)N(c1c(Cl)c(OC)cc(OC)c1Cl)C2` [Compound I-92] showed an EC50 under setting [1] of 101 to 500 nM.

In the case of `C=CC(=O)Nc1ccccc1Nc1ncc2c(n1)N(C)C(=O)N(c1cc(OC)cc(OC)c1F)C2` [Compound I-108], the EC50 under setting [2] was below 100 nM.

Turning to `CCC(=O)Nc1ccccc1Nc1ncc2c(n1)N(C)C(=O)N(c1c(Cl)c(OC)cc(OC)c1Cl)C2` [Compound I-235], under setting [1], the EC50 was 501 to 999 nM.

As to `C=CC(=O)NC1CCCC1Nc1ncc2c(n1)N(C)C(=O)N(c1c(Cl)c(OC)cc(OC)c1Cl)C2` (racemic) [Compound I-112], under setting [2], the EC50 lay in the range of 101 to 500 nM.

Under setting [1], `C=CC(=O)NC1CCCCC1Nc1ncc2c(n1)N(C1CCCN(C(=O)OC(C)(C)C)C1)C(=O)N(c1cc(OC)cc(OC)c1)C2` (racemic) [Compound I-45] gave an EC50 above 1000 nM.

`C=CC(=O)Nc1cc(OCCOC)ccc1Nc1ncc2c(n1)N(Cc1ccccc1)C(=O)N(c1cc(OC)cc(OC)c1)C2` [Compound I-14] had an EC50 under setting [2] of 101 to 500 nM.

Consider `C=CC(=O)NC1CCCCC1Nc1ncc2c(n1)N(C1CCC1)C(=O)N(c1c(Cl)c(OC)cc(OC)c1Cl)C2` (racemic) [Compound I-70], for which the EC50 under setting [2] was in the range of 101 to 500 nM.

As for `C=CC(=O)Nc1ccccc1Nc1ncc2nc(-c3cc(OC)cc(OC)c3)c(=O)n(C)c2n1` [Compound I-128], the EC50 under setting [1] is above 1000 nM.

As to `C=CC(=O)Nc1cc(C2=CCN(CC)CC2)ccc1Nc1ncc2c(n1)N(C)C(=O)N(c1cc(OC)cc(OC)c1)C2` [Compound I-56], under setting [2], the EC50 is below 100 nM.

Consider `C=CC(=O)Nc1cc(-c2cnn(C)c2)ccc1Nc1ncc2c(n1)N(C)C(=O)N(c1cc(OC)cc(OC)c1)C2` [Compound I-77], for which the EC50 under setting [2] is below 100 nM.

`C=CC(=O)Nc1ccccc1Nc1ncc2c(n1)N(Cc1ccn(C)n1)C(=O)N(c1c(Cl)c(OC)cc(OC)c1Cl)C2` [Compound I-136] returned an EC50 under setting [2] below 100 nM.

Under setting [1], `C=CC(=O)Nc1ccccc1Nc1ncc2c(n1)N(Cc1cccc(F)c1)C(=O)N(c1c(Cl)c(OC)cc(OC)c1Cl)C2` [Compound I-12] came in with an EC50 below 100 nM.

Consider `C=CC(=O)Nc1cc(N2CCOCC2)ccc1Nc1ncc2c(n1)N(C)C(=O)N(c1cc(OC)cc(OC)c1)C2` [Compound I-17], for which the EC50 under setting [2] was below 100 nM.

For the compound `C=CC(=O)Nc1cc(-c2nnn(C)n2)ccc1Nc1ncc2c(n1)N(C)C(=O)N(c1c(Cl)c(OC)cc(OC)c1Cl)C2` [Compound I-145], the EC50 under setting [2] is below 100 nM.

As for `C=CC(=O)Nc1ccccc1Nc1ncc2c(n1)N(CC1CCNCC1)C(=O)N(c1cc(OC)cc(OC)c1)C2` [Compound I-40], under setting [2], the EC50 is above 1000 nM.

As a reminder, the EC50 is the concentration that produces a half-maximal response. High values mean lower potency in that assay, low ones higher potency in that assay.
